Holding throughout (assay): Post-emergence test experiment (greenhouse pot, spray at 2-3 leaf stage)
Holding throughout (format): in vivo
Settings in all cases: 1000 g/ha; post-emergence spray at 2-3 leaf stage; assessed after 3 weeks; fresh weight inhibition rate

The test system of one assay is Galium spurium. In short, it runs like this:
(§1)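 Weed seeds sown in soil-filled pots in greenhouse, sprayed at 2-3 leaf stage (2 weeks after sowing) with compound in acetone/tween-80 plus methyl oleate emulsible concentrate (1.5 L/ha) diluted in water. Fresh-weight growth inhibition scored after 3 weeks on 0-5 scale (5: >85%, 0: <5%).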

For the next assay, the system named is Echinochloa crusgalli. The method in brief:
as §1

The subject of a further assay is Digitaria sanguinalis. The method in brief:
as §1

Another assay deals with Abutilon theophrasti. In short, it runs like this: as §1
A further assay relates to Monochoria vaginalis. In short, it runs like this: as §1

This note sets out measurements from US12049450B2, “Pyridyloxy-carboxylate derivative and preparation method therefor, herbicidal composition, and use” (Qingdao Kingagroot Chemical Compound Co., Ltd., priority 2018, dated 2024).

With `CC(Oc1nc(F)c(Cl)c(N)c1Cl)C(=O)OCc1ncns1` (stereo not drawn) [Compound 167], the “Activity level (growth inhibition rate) Galium spurium” value in the assay with Galium spurium is recorded as 5 (Level 5: the growth inhibition rate is greater than 85%). For the same molecule, in the assay with Echinochloa crusgalli, the “Activity level (growth inhibition rate) Echinochloa crusgalli” value was 5 (Level 5: the growth inhibition rate is greater than 85%). In addition, in the assay with Digitaria sanguinalis, the “Activity level (growth inhibition rate) Digitaria sanguinalis” value is reported as 5 (Level 5: the growth inhibition rate is greater than 85%). In addition, the “Activity level (growth inhibition rate) Abutilon theophrasti” value in the assay on Abutilon theophrasti is listed as 5 (Level 5: the growth inhibition rate is greater than 85%). Also, the “Activity level (growth inhibition rate) Monochoria Vaginalis” value with Monochoria vaginalis was 5 (Level 5: the growth inhibition rate is greater than 85%).

As to `CC(Oc1nc(F)c(Cl)c(N)c1Cl)C(=O)SCc1csnn1` (stereo not drawn) [Compound 168], the “Activity level (growth inhibition rate) Galium spurium” value in the assay with Galium spurium is given as 5 (Level 5: the growth inhibition rate is greater than 85%). Moreover, the “Activity level (growth inhibition rate) Echinochloa crusgalli” value in the assay on Echinochloa crusgalli is reported as 5 (Level 5: the growth inhibition rate is greater than 85%). In the assay on Digitaria sanguinalis, the “Activity level (growth inhibition rate) Digitaria sanguinalis” value is listed as 5 (Level 5: the growth inhibition rate is greater than 85%). Besides, the “Activity level (growth inhibition rate) Abutilon theophrasti” value with Abutilon theophrasti is on record as 5 (Level 5: the growth inhibition rate is greater than 85%). The “Activity level (growth inhibition rate) Monochoria Vaginalis” value in the assay on Monochoria vaginalis is on record as 5 (Level 5: the growth inhibition rate is greater than 85%).

On to `CC(Oc1nc(F)c(Cl)c(N)c1Cl)C(=O)OCC1C=C2C=CC=CC2N1` (stereo not drawn) [Compound 169], for which the “Activity level (growth inhibition rate) Galium spurium” value in the assay with Galium spurium is on record as 5 (Level 5: the growth inhibition rate is greater than 85%). For the same molecule, the “Activity level (growth inhibition rate) Echinochloa crusgalli” value in the assay with Echinochloa crusgalli is 5 (Level 5: the growth inhibition rate is greater than 85%). Moreover, in the assay on Digitaria sanguinalis, the “Activity level (growth inhibition rate) Digitaria sanguinalis” value is given as 5 (Level 5: the growth inhibition rate is greater than 85%). Further, the “Activity level (growth inhibition rate) Abutilon theophrasti” value in the assay with Abutilon theophrasti is 5 (Level 5: the growth inhibition rate is greater than 85%). Besides, the “Activity level (growth inhibition rate) Monochoria Vaginalis” value with Monochoria vaginalis is recorded as 5 (Level 5: the growth inhibition rate is greater than 85%).

For the molecule `CC(Oc1nc(F)c(Cl)c(N)c1Cl)C(=O)SCc1nc2ccccc2[nH]1` (stereo not drawn) [Compound 170], the “Activity level (growth inhibition rate) Galium spurium” value in the assay on Galium spurium is 5 (Level 5: the growth inhibition rate is greater than 85%). Further, in the assay on Echinochloa crusgalli, the “Activity level (growth inhibition rate) Echinochloa crusgalli” value was 5 (Level 5: the growth inhibition rate is greater than 85%). Further, the “Activity level (growth inhibition rate) Digitaria sanguinalis” value with Digitaria sanguinalis is given as 5 (Level 5: the growth inhibition rate is greater than 85%). For the same molecule, the “Activity level (growth inhibition rate) Abutilon theophrasti” value in the assay with Abutilon theophrasti is recorded as 5 (Level 5: the growth inhibition rate is greater than 85%). The “Activity level (growth inhibition rate) Monochoria Vaginalis” value in the assay on Monochoria vaginalis is 5 (Level 5: the growth inhibition rate is greater than 85%).

Take `CC(Oc1nc(F)c(Cl)c(N)c1Cl)C(=O)OCc1ccc2c(ccn2C)c1` (stereo not drawn) [Compound 171]: the “Activity level (growth inhibition rate) Galium spurium” value in the assay on Galium spurium is recorded as 5 (Level 5: the growth inhibition rate is greater than 85%). The “Activity level (growth inhibition rate) Echinochloa crusgalli” value in the assay on Echinochloa crusgalli was 5 (Level 5: the growth inhibition rate is greater than 85%). The “Activity level (growth inhibition rate) Digitaria sanguinalis” value with Digitaria sanguinalis is 5 (Level 5: the growth inhibition rate is greater than 85%). In the assay with Abutilon theophrasti, the “Activity level (growth inhibition rate) Abutilon theophrasti” value is 5 (Level 5: the growth inhibition rate is greater than 85%). In addition, in the assay on Monochoria vaginalis, the “Activity level (growth inhibition rate) Monochoria Vaginalis” value is reported as 5 (Level 5: the growth inhibition rate is greater than 85%).

Take `CCn1cnc2ccc(COC(=O)C(C)Oc3nc(F)c(Cl)c(N)c3Cl)cc21` (stereo not drawn) [Compound 172]: in the assay with Galium spurium, the “Activity level (growth inhibition rate) Galium spurium” value is on record as 5 (Level 5: the growth inhibition rate is greater than 85%). For the same molecule, the “Activity level (growth inhibition rate) Echinochloa crusgalli” value with Echinochloa crusgalli was 5 (Level 5: the growth inhibition rate is greater than 85%). Further, in the assay with Digitaria sanguinalis, the “Activity level (growth inhibition rate) Digitaria sanguinalis” value is on record as 5 (Level 5: the growth inhibition rate is greater than 85%). Moreover, the “Activity level (growth inhibition rate) Abutilon theophrasti” value in the assay with Abutilon theophrasti is listed as 5 (Level 5: the growth inhibition rate is greater than 85%). The “Activity level (growth inhibition rate) Monochoria Vaginalis” value in the assay with Monochoria vaginalis is reported as 5 (Level 5: the growth inhibition rate is greater than 85%).
